Measured values taken from US20240181081A1, “Compositions and Methods for Treatment of Myotonic Dystrophy Type 1 with CRISPR/SACAS9” (Vertex Pharmaceuticals Incorporated, priority 2021, published 2024).

Assays:
[1] = test system: CTG repeat expansion in the 3′ UTR of human DMPK gene; assay: DOUBLE-cut screening: CTG repeat excision by loss-of-signal ddPCR in primary DM1 patient myoblasts; type: cell-based; conditions: sgRNA pair RNP, mean of upstream and downstream ddPCR assays; for % of CTG repeat excision efficiency by ddPCR (DNA-PKi): 3 μM Compound 6 for 48 hrs; for % of CTG repeat excision efficiency by ddPCR (Vehicle): DMSO 48 hrs
Procedure: (§1) RNPs were assembled with recombinant SaCas9 protein (Aldevron) and chemically modified sgRNAs (Synthego) at a ratio of 1:3 (protein:sgRNA). For SINGLE-cut screening, RNP complexes were assembled with 30 pmol of SaCas9 and 90 pmol of sgRNA in P5 Primary Cell Nucleofector Solution (Lonza). After incubation at room temperature for 20 minutes, 10 μL of RNP complex was mixed with two hundred thousand primary myoblasts resuspended in 10 μL of P5 Nucleofector Solution. For DOUBLE-cut screening, RNP complexes were first assembled for individual sgRNAs with 20 pmol of SaCas9 protein and 60 pmol of sgRNAs in 5 μL of P5 Nucleofector Solution. After incubation at room temperature for 20 minutes, the two RNP complexes (one for upstream sgRNA and one for downstream sgRNA) were mixed at 1:1 ratio and then further mixed with two hundred thousand primary myoblasts resuspended in 10 μL of P5 Nucleofector Solution.
(§2) The Nucleofector 96-well Shuttle System (Lonza) was used to deliver the SaCa9/sgRNA RNPs into primary DM1 patient myoblasts using the nucleofection program CM138. Following nucleofection, myoblasts from each well of nucleofection shuttle were split into six wells of the 96-well cell culture plate (Greiner, 655090) coated with matrigel. The first three wells were treated with DMSO for 48 hrs before changing to fresh myoblast growth medium, and the other three wells were treated with 3 μM of DNA-PKi Compound 6 for 48 hrs before changing to fresh myoblast growth medium. 72 hrs post nucleofection, two wells of DMSO-treated myoblasts and two wells of DNA-PKi-treated myoblasts from each nucleofection were harvested for genomic DNA extraction using the Kingfisher Flex purification system (Thermal Fisher), whereas one well of DMSO-treated myoblasts and one well of DNA-PKi-treated myoblasts were stained for RNA foci by FISH staining.
The primers and probes of ddPCR were designed using the online primer design software Primer3Plus (http://www.bioinformatics.nl/cgi-bin/primer3plus/primer3plus.cgi). The two Target primers/probe sets were used to detect CTG repeat excision, and the Reference primers/probe set was used to amplify a region located in Exon 1 of human DMPK gene and it served as a reference control for the Target sets. The 24 μL of ddPCR reaction consisted of 12 μL of Supermix for Probes (no dUTP) (Bio-Rad Laboratories), 1 μL of Reference primers mix (21.6 μM), 1 μL of Reference probe (6 μM), 1 μL of Target primers mix (21.6 μM), 1 μL of Target probe (6 μM), and 8 μL of sample genomic DNA. Droplets were generated using probe oil with the QX200 Droplet Generator (Bio-Rad Laboratories). Droplets were transferred to a 96-well PCR plate, sealed and cycled in a C1000 deep well Thermocycler (Bio-Rad Laboratories) under the following cycling protocol: 1 cycle at 95° C. for 10 min; 40 cycles of 94° C. for 30 sec, and 58° C. for 1 min; 1 cycle at 98° C. for 10 min (for enzyme inactivation). The cycled plate was then transferred and read in the FAM and HEX channels using the Bio-Rad QX200 Droplet Reader (Bio-Rad Laboratories). ddPCR analysis was performed with the Bio-Rad QuantaSoft Pro Software.
Next, DOUBLE-cut screening was performed to assess the efficiency of paired sgRNAs-induced CTG repeat excision and RNA foci reduction. 90 SaCas9 sgRNA pairs formed by one upstream sgRNA and one downstream sgRNA were assembled with recombinant SaCas9 protein into RNP complex and nucleofected into primary DM1 patient myoblasts. Nucleofected myoblasts were treated with either DMSO (vehicle) or 3 μM of Compound 6 (DNA-PKi) for 48 hrs. 72 hrs post nucleofection, myoblasts were subjected to either genomic DNA isolation or RNA foci staining.
One upstream and one downstream loss-of-signal droplet digital PCR (ddPCR) assays were used to determine the efficiency of CTG repeat excision. ddPCR signals would be abolished upon excision of the CTG repeat expansion in these loss-of-signal ddPCR assays. […]

[2] = test system: CUG RNA foci in primary DM1 patient myoblasts; assay: DOUBLE-cut screening: FISH staining of RNA foci in primary DM1 patient myoblasts; type: cell-based, human; conditions: sgRNA pair RNP, 72 hrs post nucleofection; for % of CUG foci free nuclei (DNA-PKi): 3 μM Compound 6 for 48 hrs; for % of CUG foci free nuclei (Vehicle): DMSO 48 hrs
Procedure: as §1, §2
Primary myoblasts were fixed for 15 min with 4% paraformaldehyde (PFA) and washed five times with 1×PBS for 10 min each at room temperature. Before staining, cells were permeabilized with 0.5% triton X-100 in 1×PBS for 5 min at room temperature, and then washed with 30% formamide and 2× saline-sodium citrate (SSC) mixture for 10 min at room temperature. Cells were then stained with 1 ng/μL of Cy3-PNA(CAG) 5 probe (PNA Bio, F5001) diluted in 30% formamide, 2×SSC, 2 μg/mL BSA, 66 μg/mL yeast tRNA, and 2 mM vanadyl complex for 15 min at 80° C. Following probe staining, cells were then washed in 30% formamide and 2×SSC mixture for 30 min at 42° C., then washed in 30% formamide and 2×SSC mixture for 30 min at 37° C., and then washed in 1×SSC solution for 10 min at room temperature, and finally washed in 1×PBS for 10 min at room temperature. Cells were next stained with anti-MBNL1 antibody (Santa Cruz, 3A4) diluted in 1% bovine serum albumin (BSA) for overnight at 4° C., and washed twice with 1×PBS for 10 min each at room temperature. Cells were then incubated with the secondary antibody goat […] Alexa 647 (Thermo Fisher, A32728) diluted in 1% BSA for 1 hr at room temperature, and washed twice with 1×PBS for 10 min each at room temperature. Next, cells were stained with Hoechst solution (Thermo Fisher, H3569) at 0.1 mg/ml for 5 min, and washed once with 1×PBS for 5 min. PBS was aspirated and fresh 100 μl of fresh PBS was added to each well. High-throughput acquisition of images was completed with the ImageXpress Micro Confocal High-Content Imaging System (Molecular Devices). RNA foci quantifications were accomplished with a customized analysis module of the MetaXpress program (Molecular Devices).
Next, DOUBLE-cut screening was performed to assess the efficiency of paired sgRNAs-induced CTG repeat excision and RNA foci reduction. 90 SaCas9 sgRNA pairs formed by one upstream sgRNA and one downstream sgRNA were assembled with recombinant SaCas9 protein into RNP complex and nucleofected into primary DM1 patient myoblasts. […]

Row | Substance | % of CTG repeat excision efficiency by ddPCR (DNA-PKi) [1] [%] | % of CTG repeat excision efficiency by ddPCR (Vehicle) [1] [%] | % of CUG foci free nuclei (DNA-PKi) [2] [%] | % of CUG foci free nuclei (Vehicle) [2] [%]
1 | SaU4 + SaD7: SaCas9 sgRNA pair, SEQ ID NOs: 4 and 15 (guide 1 CCAGTTCACAACCGCTCCGAGC; guide 2 GGGGCGCGGGATCCCCGAAAAA; listed as DNA, chemistry not fully specified) | 55.59 | 39.17 | 78.79 | 58.50
2 | SaU7 + SaD17: SaCas9 sgRNA pair, SEQ ID NOs: 7 and 25 (guide 1 CGCGGCCGGCGAACGGGGCTCG; guide 2 TTTATTCGCGAGGGTCGGGGGT; listed as DNA, chemistry not fully specified) | 55.97 | 27.41 | 75.53 | 36.12
3 | SaU8 + SaD15: SaCas9 sgRNA pair, SEQ ID NOs: 8 and 23 (guide 1 GGCTCGAAGGGTCCTTGTAGCC; guide 2 GACAATAAATACCGAGGAATGT; listed as DNA, chemistry not fully specified) | 57.24 | 39.47 | 86.21 | 76.50
4 | SaU2 + SaD13: SaCas9 sgRNA pair, SEQ ID NOs: 2 and 21 (guide 1 ACTCAGTCTTCCAACGGGGCCC; guide 2 CCCAACAACCCCAATCCACGTT; listed as DNA, chemistry not fully specified) | 51.47 | 30.92 | 75.83 | 39.86
5 | SaU4 + SaD13: SaCas9 sgRNA pair, SEQ ID NOs: 4 and 21 (guide 1 CCAGTTCACAACCGCTCCGAGC; guide 2 CCCAACAACCCCAATCCACGTT; listed as DNA, chemistry not fully specified) | 54.46 | 32.38 | 73.71 | 43.83
6 | SaU7 + SaD4: SaCas9 sgRNA pair, SEQ ID NOs: 7 and 12 (guide 1 CGCGGCCGGCGAACGGGGCTCG; guide 2 ACTTTGCGAACCAACGATAGGT; listed as DNA, chemistry not fully specified) | 73.99 | 57.96 | 87.34 | 74.84
7 | SaU1 + SaD18: SaCas9 sgRNA pair, SEQ ID NOs: 1 and 26 (guide 1 GCCCCGGAGTCGAAGACAGTTC; guide 2 GGGCCTTTTATTCGCGAGGGTC; listed as DNA, chemistry not fully specified) | 47.64 | 19.40 | 69.94 | 29.85
8 | SaU8 + SaD18: SaCas9 sgRNA pair, SEQ ID NOs: 8 and 26 (guide 1 GGCTCGAAGGGTCCTTGTAGCC; guide 2 GGGCCTTTTATTCGCGAGGGTC; listed as DNA, chemistry not fully specified) | 44.51 | 18.17 | 70.76 | 36.66
9 | SaU3 + SaD11: SaCas9 sgRNA pair, SEQ ID NOs: 3 and 19 (guide 1 ACTCCGGGGCCCCGTTGGAAGA; guide 2 CAAAACGTGGATTGGGGTTGTT; listed as DNA, chemistry not fully specified) | 58.33 | 32.84 | 73.87 | 50.28
10 | SaU3 + SaD13: SaCas9 sgRNA pair, SEQ ID NOs: 3 and 21 (guide 1 ACTCCGGGGCCCCGTTGGAAGA; guide 2 CCCAACAACCCCAATCCACGTT; listed as DNA, chemistry not fully specified) | 57.82 | 30.34 | 74.02 | 38.07
11 | SaU4 + SaD3: SaCas9 sgRNA pair, SEQ ID NOs: 4 and 11 (guide 1 CCAGTTCACAACCGCTCCGAGC; guide 2 CAACGATAGGTGGGGGTGCGTG; listed as DNA, chemistry not fully specified) | 56.38 | 44.46 | 80.39 | 60.98
12 | SaU7 +SaD11: SaCas9 sgRNA pair, SEQ ID NOs: 7 and 19 (guide 1 CGCGGCCGGCGAACGGGGCTCG; guide 2 CAAAACGTGGATTGGGGTTGTT; listed as DNA, chemistry not fully specified) | 51.90 | 25.10 | 73.38 | 36.96
13 | SaU2 + SaD17: SaCas9 sgRNA pair, SEQ ID NOs: 2 and 25 (guide 1 ACTCAGTCTTCCAACGGGGCCC; guide 2 TTTATTCGCGAGGGTCGGGGGT; listed as DNA, chemistry not fully specified) | 52.34 | 31.11 | 78.68 | 55.20
